{"source": "ChEMBL document CHEMBL6078711", "about": "“Design, synthesis, and biological evaluation of steroidal indole derivatives as membrane-targeting antibacterial candidates” (Eur J Med Chem, 2025)", "key": {"Cell membrane [1]": {"system": "Cell membrane", "experiment": "Induction of inner membrane permeabilization in Staphylococcus aureus CGMCC1.8721 assessed as increase in fluorescence intensity by PI staining based fluorescence analysis", "format": "subcellular"}, "HEK-293T": {"system": "HEK-293T", "experiment": "Cytotoxicity against HEK293T cells upto 20 uM", "format": "toxicity, cell-based", "conditions": "human"}, "Staphylococcus aureus [2]": {"system": "Staphylococcus aureus", "experiment": "Antibacterial activity against methicillin-resistant Staphylococcus aureus ATCC 43300 assessed as reduction in bacterial growth in presence of Na+", "format": "functional"}, "Staphylococcus aureus [3]": {"system": "Staphylococcus aureus", "experiment": "Antibacterial activity against methicillin-resistant Staphylococcus aureus CGMCC 1.12409 assessed as reduction in bacterial growth", "format": "functional"}, "Cell membrane [4]": {"system": "Cell membrane", "experiment": "Disruption of cell membrane integrity in Staphylococcus aureus CGMCC1.8721 assessed as appearance of uneven cell surface at 1 to 4 times MIC by scanning electron microscopic analysis", "format": "subcellular"}, "Staphylococcus aureus [5]": {"system": "Staphylococcus aureus", "experiment": "Drug resistance, ratio of MIC for Staphylococcus aureus CGMCC1.8721 after 30 days exposure to MIC for Staphylococcus aureus CGMCC1.8721 during first exposure", "format": "functional"}, "Staphylococcus aureus [6]": {"system": "Staphylococcus aureus", "experiment": "Bactericidal activity against methicillin-resistant Staphylococcus aureus ATCC 43300 assessed as reduction in bacterial growth", "format": "functional"}, "Staphylococcus aureus [7]": {"system": "Staphylococcus aureus", "experiment": "Antibiofilm activity against Staphylococcus aureus CGMCC1.8721 assessed as inhibition of biofilm formation at 8 times MIC", "format": "functional"}, "A549": {"system": "A549", "experiment": "Cytotoxicity against human A549 cells assessed as cell viability upto 40 uM relative to control", "format": "functional", "conditions": "up to 40 µM"}, "Staphylococcus aureus [8]": {"system": "Staphylococcus aureus", "experiment": "Antibacterial activity against methicillin-resistant Staphylococcus aureus ATCC 33591 assessed as reduction in bacterial growth in presence of Zn2+", "format": "functional"}, "Staphylococcus aureus [9]": {"system": "Staphylococcus aureus", "experiment": "Antibacterial activity against methicillin-resistant Staphylococcus aureus ATCC 33591 assessed as reduction in bacterial growth", "format": "functional"}, "Staphylococcus aureus [10]": {"system": "Staphylococcus aureus", "experiment": "Antibacterial activity against Methicillin-resistant Staphylococcus aureus CGMCC1.8721 infected in mouse skin infection model assessed as reduction in bacterial load at 5 mg/kg, sc", "format": "functional", "design": "scale not given: the % may be the effect or the level left"}, "Staphylococcus aureus [11]": {"system": "Staphylococcus aureus", "experiment": "Antibacterial activity against methicillin-resistant Staphylococcus aureus CGMCC 1.12409 assessed as reduction in bacterial growth in presence of Ca2+", "format": "functional"}, "Staphylococcus aureus [12]": {"system": "Staphylococcus aureus", "experiment": "Antibacterial activity against Staphylococcus aureus CGMCC1.8721 assessed as reduction in bacterial growth in presence of lipoteichoic acid", "format": "functional, organism-based"}, "Staphylococcus aureus [13]": {"system": "Staphylococcus aureus", "experiment": "Antibiofilm activity against Staphylococcus aureus CGMCC1.8721 assessed as inhibition of biofilm formation", "format": "functional, organism-based"}, "Staphylococcus aureus [14]": {"system": "Staphylococcus aureus", "experiment": "Bactericidal activity against methicillin-resistant Staphylococcus aureus ATCC 33591 assessed as reduction in bacterial growth", "format": "functional"}, "Staphylococcus aureus [15]": {"system": "Staphylococcus aureus", "experiment": "Antibacterial activity against Staphylococcus aureus CGMCC1.8721 assessed as reduction in bacterial growth in presence of Zn2+", "format": "functional"}, "Staphylococcus aureus [16]": {"system": "Staphylococcus aureus", "experiment": "Antibacterial activity against methicillin-resistant Staphylococcus aureus ATCC 33591 assessed as reduction in bacterial growth in presence of Fe2+", "format": "functional"}, "Staphylococcus aureus [17]": {"system": "Staphylococcus aureus", "experiment": "Antibacterial activity against Staphylococcus aureus CGMCC1.8721 assessed as reduction in bacterial growth in presence of phosphatidylethanolamine", "format": "functional, organism-based"}, "Staphylococcus aureus [18]": {"system": "Staphylococcus aureus", "experiment": "Antibacterial activity against Staphylococcus aureus CGMCC1.8721 assessed as reduction in bacterial growth in presence of phosphatidylglycerol", "format": "functional"}, "Staphylococcus aureus [19]": {"system": "Staphylococcus aureus", "experiment": "Antibacterial activity against Staphylococcus aureus CGMCC1.8721 assessed as reduction in bacterial growth in presence of peptidoglycan", "format": "functional, organism-based"}, "Staphylococcus aureus [20]": {"system": "Staphylococcus aureus", "experiment": "Antibacterial activity against methicillin-resistant Staphylococcus aureus ATCC 33591 assessed as reduction in bacterial growth in presence of Na+", "format": "functional"}, "Cell membrane [21]": {"system": "Cell membrane", "experiment": "Induction of membrane depolarization in Staphylococcus aureus CGMCC1.8721 assessed as increase in fluorescence intensity measured upto 30 mins by DiSC35 dye-based fluorescence assay", "format": "subcellular", "conditions": "dose 2-8 µg/ml"}}, "note": "Calls of active or inactive are those of the source. No cut-off for these calls is given here."}
{"smiles": "CCNCc1ccc2[nH]cc(C[C@@H](C)[C@H]3CC[C@H]4[C@@H]5CC[C@@H]6C[C@H](O)CC[C@]6(C)[C@H]5CC[C@]34C)c2c1", "values": [{"measurement": "Activity", "setting": "Cell membrane [1]", "result": "Dose-dependent-effect"}, {"measurement": "Activity", "setting": "HEK-293T", "result": "Non-toxic"}, {"measurement": "MIC", "setting": "Staphylococcus aureus [2]", "result": 1, "unit": "µg/mL"}, {"measurement": "MIC", "setting": "Staphylococcus aureus [3]", "result": 2, "unit": "µg/mL"}, {"measurement": "Activity", "setting": "Cell membrane [4]", "result": "Active"}, {"measurement": "Ratio", "setting": "Staphylococcus aureus [5]", "result": 64}, {"measurement": "MBC", "setting": "Staphylococcus aureus [6]", "result": 2, "unit": "µg/mL"}, {"measurement": "inhibition (INH)", "setting": "Staphylococcus aureus [7]", "result": 92.4, "unit": "%"}, {"measurement": "Activity", "setting": "A549", "result": ">70", "unit": "%"}, {"measurement": "MIC", "setting": "Staphylococcus aureus [8]", "result": 2, "unit": "µg/mL"}, {"measurement": "MIC", "setting": "Staphylococcus aureus [9]", "result": 2, "unit": "µg/mL"}, {"measurement": "Activity", "setting": "Staphylococcus aureus [10]", "result": 67, "unit": "%"}, {"measurement": "MIC", "setting": "Staphylococcus aureus [11]", "result": 2, "unit": "µg/mL"}, {"measurement": "Activity", "setting": "Staphylococcus aureus [12]", "result": "inactive"}, {"measurement": "Activity", "setting": "Staphylococcus aureus [13]", "result": "Dose-dependent-effect"}, {"measurement": "MBC", "setting": "Staphylococcus aureus [14]", "result": 4, "unit": "µg/mL"}, {"measurement": "MIC", "setting": "Staphylococcus aureus [15]", "result": 1, "unit": "µg/mL"}, {"measurement": "MIC", "setting": "Staphylococcus aureus [16]", "result": 2, "unit": "µg/mL"}, {"measurement": "Activity", "setting": "Staphylococcus aureus [17]", "result": "inactive"}, {"measurement": "MIC", "setting": "Staphylococcus aureus [18]", "result": 32, "unit": "µg/mL"}, {"measurement": "Activity", "setting": "Staphylococcus aureus [19]", "result": "inactive"}, {"measurement": "MIC", "setting": "Staphylococcus aureus [20]", "result": 2, "unit": "µg/mL"}, {"measurement": "Activity", "setting": "Cell membrane [21]", "result": "Dose-dependent-effect"}]}
